This is an account of results in patent US10011616B2, “Boron-containing small molecules as antiprotozoal1 agents” (MMV MEDICINES FOR MALARIA VENTURE, priority 2015, dated 2018).

Where a name gives a salt, the structure may show the parent alone.

In experiment [1] the test system is W2 strain of Plasmodium falciparum. Kind of experiment: In vitro activity against W2 strain of Plasmodium falciparum (YOYO-1 flow cytometry). Type of experiment: cell-based. As to conditions: Erythrocyte, 48 h, P. falciparum W2 in human erythrocytes, 2 d, growth inhibition, read-out: IC50: 1 Org. Growth P. falciparum W2, 2 d (LPS_00451). As to the method:
In Vitro Activity Against Plasmodium falciparum
b) Against W2 Strain of Plasmodium falciparum
W2 strain P. falciparum parasites were cultured in human erythrocytes and RPMI-1640 culture media with either 10% human serum or 0.5% Albumax serum substitute under 3% O2, 5% CO2, and 92% N2. Parasites synchronized to ring stage by treatments with 5% D-sorbitol were cultured with serial dilutions of benzoxaboroles from 5 to 10 mM stocks in 96 well microplate cultures including 200 μL of media/well, 2% hematocrit, and 1% parasitemia. At the completion of 48 h incubations, when untreated cultures contained new rings, parasites were fixed with 2% formaldehyde for 48 h, and 5 μL aliquots were transferred to another 96 well plate containing 150 μL/well of staining solution (100 mM NH4Cl, 0.1% Triton X-100, and 1 nM YOYO-1 in PBS). Parasites per erythrocyte were then determined by flow cytometry from plots of forward scatter against fluorescence (excitation 488 nm, emission 520 nm) using a FacSort flow cytometer (Beckton Dickinson) equipped with an AMS Loader (Cytek Development). All values were normalized to percent control activity, and IC50s were calculated using the Prism 3.0 program (GRAPHPAD Software). Goodness of fit was assessed by R^2 values, and meaningful dose-response curves yielded R^2 values >0.95.
For orientation: In flow cytometry, cells or beads pass a laser one at a time.

For experiment [2], the system named is 3D7 strain of Plasmodium falciparum. Kind of experiment: In vitro activity against 3D7 strain of Plasmodium falciparum ([3H]-hypoxanthine incorporation assay). Type of experiment: cell-based. The following applies: Erythrocyte, 48 h, P. falciparum 3D7 in human erythrocytes, 2 d, growth inhibition, read-out: IC50: 1 Org. Growth P. falciparum 3D7, 2 d (LPS_00570). As to the method:
In Vitro Activity Against Plasmodium falciparum a) Against 3D7 Strain of Plasmodium falciparum Inhibition of 3D7 strain parasites was assessed using the [^3H]-hypoxanthine incorporation assay (Desjardins, et al. Antimicrob. Agents Chemother. 1979, 16, 710-718). Briefly, parasites were cultured in human erythrocytes (from the Spanish Red Cross blood bank) using RPMI-1640 culture media (Gibco) supplemented with 0.5% Albumax II (Invitrogen), 2% D-sucrose (Sigma-Aldrich), 0.3% glutamine (Sigma-Aldrich), and 5 mM hypoxanthine (Sigma-Aldrich). Cultures were maintained at 37° C. at an atmosphere of 5% O2, 5% CO2, and […]. To assess inhibition, asynchronous parasite cultures with 0.5% parasitemia and 2% hematocrit were exposed to 3-fold serial dilutions of test compounds for 24 hours in 96 well plate cultures (Costar #3894). After 24 hours, [^3H]-hypoxanthine was added, plates were incubated for an additional 24 hours, and parasites were harvested on glass fiber filters (Wallac #1450-421) using a cell harvester 96 (TOMTEC, Perkin Elmer). Filters were dried on scintillator sheets (MeltiLex A, PerkinElmer #1450-441) to determine incorporation of [^3H]-hypoxanthine. Radioactivity was measured using a microbeta counter (Perkin Elmer). Data are normalized using the incorporation of the positive control (infected erythrocytes without drug). IC50 values were determined using Excel and Grafit 5 software. Values were determined from at least three independent experiments, and standard deviations were calculated.

A word on the IC50: it is the concentration that gives 50% inhibition.

In the case of `Cc1c(Oc2cnc(C(=O)N[C@@H](CO)C3CC3)cn2)ccc2c1B(O)OC2` [Example 24, (R)—N-(1-cyclopropyl-2-hydroethyl)-5-(1-hydroxy-7-methyl-1,3-dihydrobenzo[c][1,2]oxaborol-6-yloxy)pyrazine-2-carboxamide], the values for the IC50 in experiment [1] and in experiment [2] were 0.492 µM and 0.587 µM, respectively.

In the case of `Cc1c(Oc2cnc(C(=O)N[C@H]3CCC[C@@H]3O)cn2)ccc2c1B(O)OC2` [Example 46, 5-(1-hydroxy-7-methyl-1,3-dihydrobenzo[c][1,2]oxaborol-6-yloxy)-N-((1S,2S)-2-hydroxycyclopentyl)pyrazine-2-carboxamide], the values for the IC50 in experiment [1] and in experiment [2] were 0.149 µM and 0.537 µM, respectively.

Consider `Cc1c(Oc2cnc(C(=O)N3CC(O)(C4CC4)C3)cn2)ccc2c1B(O)OC2` [Example 55, (3-cyclopropyl-3-hydroxyazetidin-1-yl) (5-((1-hydroxy-7-methyl-1,3-dihydrobenzo[c][1,2]oxaborol-6-yl)oxy)pyrazin-2-yl)methanone], for which the IC50 turned out to be 0.0517 µM in experiment [1] and 0.234 µM in experiment [2].

Take `CCC(CO)NC(=O)c1cnc(Oc2ccc3c(c2C)B(O)OC3)cn1` (stereo not shown) [Example 18, 5-(1-hydroxy-7-methyl-1,3-dihydrobenzo[c][1,2]oxaborol-6-yloxy)-N-(1-hydroxybutan-2-yl)pyrazine-2-carboxamide]: the results for the IC50 in experiment [1] and in experiment [2] were 0.622 µM and 0.725 µM, respectively.

As to `Cc1c(Oc2cnc(C(=O)N[C@H](CO)CCC(F)(F)F)cn2)ccc2c1B(O)OC2` [Example 38, (S)-5-(1-hydroxy-7-methyl-1,3-dihydrobenzo[c][1,2]oxaborol-6-yloxy)-N-(5,5,5-trifluoro-1-hydroxypentan-2-yl)pyrazine-2-carboxamide], the IC50 was found to be 0.352 µM in experiment [1] and 0.959 µM in experiment [2].

As for `Cc1c(Oc2cnc(C(=O)NC(CO)c3ccccc3)cn2)ccc2c1B(O)OC2` (stereo not shown) [Example 16, N-(2-hydroxy-1-phenylethyl)-5-(1-hydroxy-7-methyl-1,3-dihydrobenzo[c][1,2]oxaborol-6-yloxy)pyrazine-2-carboxamide], the IC50 was found to be 0.223 µM in experiment [1] and 0.38 µM in experiment [2].

Regarding `CCC[C@H](NC(=O)c1cnc(Oc2ccc3c(c2C)B(O)OC3)cn1)C(C)(C)O` [Example 44, (S)—N-(2-hydroxy-2-methylhexan-3-yl)-5-(1-hydroxy-7-methyl-1,3-dihydrobenzo[c][1,2]oxaborol-6-yloxy)pyrazine-2-carboxamide], the IC50 in experiment [1] was determined as 0.129 µM; in experiment [2], 0.217 µM.

For the molecule `Cc1c(Oc2cnc(C(=O)N(CCO)CCO)cn2)ccc2c1B(O)OC2` [Example 6, 5-(1-hydroxy-7-methyl-1,3-dihydrobenzo[c][1,2]oxaborol-6-yloxy)-N,N-bis(2-hydroxyethyl)pyrazine-2-carboxamide], the IC50 in experiment [1] was 0.328 µM; in experiment [2], 0.184 µM.

`Cc1c(Oc2cnc(C(=O)NCC(C)(C)O)cn2)ccc2c1B(O)OC2` [Example 4, N-(2-hydroxy-2-methylpropyl)-5-(1-hydroxy-7-methyl-1,3-dihydrobenzo[c][1,2]oxaborol-6-yloxy)pyrazine-2-carboxamide]: the figures for the IC50 in experiment [1] and in experiment [2] were 0.334 µM and 0.554 µM, respectively.

As to `Cc1c(Oc2cnc(C(=O)NC(CO)Cc3ccccc3)cn2)ccc2c1B(O)OC2` (stereo not shown) [Example 15, N-(1-hydroxy-3-phenylpropan-2-yl)-5-(1-hydroxy-7-methyl-1,3-dihydrobenzo[c][1,2]oxaborol-6-yloxy)pyrazine-2-carboxamide], the IC50 amounted to 0.297 µM in experiment [1] and 0.407 µM in experiment [2].

In the case of `Cc1c(Oc2cnc(C(=O)N3CCNC[C@@H]3CO)cn2)ccc2c1B(O)OC2` [Example 51, (R)-(5-(1-hydroxy-7-methyl-1,3-dihydrobenzo[c][1,2]oxaborol-6-yloxy)pyrazin-2-yl) (2-(hydroxymethyl)piperazin-1-yl)methanone Hydrochloric Acid Salt], the figures for the IC50 in experiment [1] and in experiment [2] were 0.103 µM and 0.151 µM, respectively.

Take `Cc1c(Oc2cnc(C(=O)N[C@H](C)CO)cn2)ccc2c1B(O)OC2` [Example 11]: the 50% inhibitory concentration (IC50) is 0.944 µM in experiment [1] and 0.848 µM in experiment [2].

Turning to `CC[C@H](NC(=O)c1cnc(Oc2ccc3c(c2C)B(O)OC3)cn1)C(C)(C)O` [Example 53, (S)—N-(2-hydroxy-2-methylpentan-3-yl)-5-(1-hydroxy-7-methyl-1,3-dihydrobenzo[c][1,2]oxaborol-6-yloxy)pyrazine-2-carboxamide], the half-inhibitory concentration (IC50) in experiment [1] stood at 0.279 µM; in experiment [2], 0.829 µM.

As to `Cc1c(Oc2cnc(C(=O)N[C@@H](CO)C(C)C)cn2)ccc2c1B(O)OC2` [Example 25, (R)—N-(1-hydroxy-3-methylbutan-2-yl)-5-(1-hydroxy-7-methyl-1,3-dihydrobenzo[c][1,2]oxaborol-6-yloxy)pyrazine-2-carboxamide], the figures for the IC50 in experiment [1] and in experiment [2] were 0.149 µM and 0.466 µM, respectively.

In the case of `CCCC[C@H](CO)NC(=O)c1cnc(Oc2ccc3c(c2C)B(O)OC3)cn1` [Example 28, (R)-5-(1-hydroxy-7-methyl-1,3-dihydrobenzo[c][1,2]oxaborol-6-yloxy)-N-(1-hydroxyhexan-2-yl)pyrazine-2-carboxamide], the results for the IC50 in experiment [1] and in experiment [2] were 0.0849 µM and 0.215 µM, respectively.

Regarding `Cc1c(Oc2cnc(C(=O)NC(CO)C(C)C)cn2)ccc2c1B(O)OC2` (stereo not shown) [Example 7, N-(1-hydroxy-3-methylbutan-2-yl)-5-(1-hydroxy-7-methyl-1,3-dihydrobenzo[c][1,2]oxaborol-6-yloxy)pyrazine-2-carboxamide], the IC50 in experiment [1] turned out to be 0.115 µM; in experiment [2], 0.0965 µM.

On to `Cc1c(Oc2cnc(C(=O)NCC(C)O)cn2)ccc2c1B(O)OC2` (stereo not shown) [Example 9, 5-(1-hydroxy-7-methyl-1,3-dihydrobenzo[c][1,2]oxaborol-6-yloxy)-N-(2-hydroxypropyl)pyrazine-2-carboxamide], for which the IC50 in experiment [1] was found to be 1.28 µM; in experiment [2] it was 1.1 µM.

For the molecule `Cc1c(Oc2cnc(C(=O)NC(C)(C)CO)cn2)ccc2c1B(O)OC2` [Example 3, N-(1-hydroxy-2-methylpropan-2-yl)-5-(1-hydroxy-7-methyl-1,3-dihydrobenzo[c][1,2]oxaborol-6-yloxy)pyrazine-2-carboxamide], the IC50 was 0.29 µM in experiment [1] and 0.425 µM in experiment [2].

As to `CCC[C@@H](NC(=O)c1cnc(Oc2ccc3c(c2C)B(O)OC3)cn1)C(C)(C)O` [Example 43, (R)—N-(2-hydroxy-2-methylhexan-3-yl)-5-((1-hydroxy-7-methyl-1,3-dihydrobenzo[c][1,2]oxaborol-6-yl)oxy)pyrazine-2-carboxamide], the IC50 in experiment [1] amounted to 0.26 µM; in experiment [2] it was 0.553 µM.

Consider `C=CC(CO)NC(=O)c1cnc(Oc2ccc3c(c2C)B(O)OC3)cn1` (stereo not shown) [Example 20, 5-(1-hydroxy-7-methyl-1,3-dihydrobenzo[c][1,2]oxaborol-6-yloxy)-N-(1-hydroxybut-3-en-2-yl)pyrazine-2-carboxamide], for which the figures for the IC50 in experiment [1] and in experiment [2] were 0.535 µM and 0.786 µM, respectively.

Take `Cc1c(Oc2cnc(C(=O)N[C@@H](C)CO)cn2)ccc2c1B(O)OC2` [Example 12, (S)-5-(1-hydroxy-7-methyl-1,3-dihydrobenzo[c][1,2]oxaborol-6-yloxy)-N-(1-hydroxypropan-2-yl)pyrazine-2-carboxamide]: the results for the IC50 in experiment [1] and in experiment [2] were 0.844 µM and 0.808 µM, respectively.

As for `CCC[C@@H](CO)NC(=O)c1cnc(Oc2ccc3c(c2C)B(O)OC3)cn1` [Example 13, (S)-5-(1-hydroxy-7-methyl-1,3-dihydrobenzo[c][1,2]oxaborol-6-yloxy)-N-(1-hydroxypentan-2-yl)pyrazine-2-carboxamide], the IC50 turned out to be 0.297 µM in experiment [1] and 0.715 µM in experiment [2].

Regarding `Cc1c(Oc2cnc(C(=O)N[C@@H](CO)CC(F)(F)F)cn2)ccc2c1B(O)OC2` [Example 33, (R)-5-(1-hydroxy-7-methyl-1,3-dihydrobenzo[c][1,2]oxaborol-6-yloxy)-N-(4,4,4-trifluoro-1-hydroxybutan-2-yl)pyrazine-2-carboxamide], the IC50 in experiment [1] stood at 0.0822 µM; in experiment [2], 0.149 µM.
